Reference: patent US11590087B2, “Cannabidiol-type cannabinoid compound” (GW Research Limited, priority 2019, dated 2023)

Columns and labels:
[1] = test system: tonic hind limb extensor convulsions; assay: Maximal electroshock seizure threshold (MEST) test in the mouse; conditions: for % change from vehicle (CC50) / CC50 ± SEM: mouse
Method: The efficacy of 6-OH CBDV was tested in a mouse model of generalised seizure, the maximal electroshock seizure threshold (MEST) test.
The maximal electroshock seizure threshold (MEST) test is widely utilized preclinically to evaluate pro- or anti-convulsant properties of test compounds (Loscher et al., 1991).
In the MEST test the ability of a drug to alter the seizure threshold current required to induce hind limb tonic extensor convulsions is measured according to an “up and down” method of shock titration (Kimball et al., 1957). An increase in seizure threshold is indicative of anti-convulsant effect.
The ability of a test compound to alter the stimulus intensity, expressed as current (mA), required to induce the presence of tonic hind limb extensor convulsions, is assessed in the MEST.
Naïve mice were acclimatised to the procedure room in their home cages for up to 7 days, with food and water available ad libitum.
All animals were weighed at the beginning of the study and randomly assigned to treatment groups based on a mean distribution of body weight across groups.
The first animal within a treatment group was given a shock at the expected or estimated CC50 current. For subsequent animals, the current was lowered or raised depending on the convulsions outcome from the preceding animal.
Data generated from each treatment group were used to calculate the CC50±SEM values for the treatment group.
Vehicle: (5% ethanol, 5% solutol, 90% Saline) was prepared as follows: 2 mL of ethanol, 2 mL of solutol were warmed to 60° C., in 36 mL of saline (1:1:18).
The test compound, alpha 6-OH CBDV was prepared according to the method described in Example 1. 6-OH CBDV was administered at 3, 10 and 30 mg/kg (i.p.) in a 1:1:18 ethanol:soluto:0.9% saline formulation.
6-OH CBDV effects were also calculated as percentage change in CC50 from the vehicle control group.
Significant difference between drug-treated animals and controls were assessed according to Litchfield and Wilcoxon (1949).

[2] = test system: tonic hind limb extensor seizure; assay: Supramaximal electroshock seizure (MES) test in the mouse; type: in vivo
Source text: The supramaximal electroshock seizure ([…]) test is widely utilized preclinically to evaluate anti-convulsant properties of molecules and standard anti-epileptic drugs (Loscher et al., 1991).
The MES test is a very stringent model in which mice receive a predetermined high-level electrical stimulus of sufficient intensity to reliably produce tonic hindlimb extensor seizures in 100% of control animals. As such the MES test is a rigorous evaluation of anticonvulsant activity (Swinyard, 1985).
Animals were dosed i.p. according to treatment group.
The vehicle (10 ml/kg i.p. 60 min pre-treatment time) was 1:1:18 vehicle 5% ethanol, 5% kolliphor EL, 90% saline.
The test compound, 6-OH CBDV was administered at doses of 3, 10, 30, and 100 mg/kg given at 10 ml/kg i.p. 60 min pre-treatment time.
The positive control valproate was used at 250 mg/kg (10 ml/kg i.p. 30 min pre-treatment time).
Induction of seizure is measured as an all-or-nothing effect scored as either present (+) or absent (0) for each animal.
Data was collected by an observer unaware of the treatment for each animal and was expressed as the number of +'s or 0's for each treatment group.
The percentage inhibition of relevant vehicle treated group (the protection relative to vehicle treated controls) was then generated.
Significant differences between individual treatment groups and vehicle-treated groups were assessed using 2-tailed Fisher's Exact Probability test (p<0.05 considered significant).

[3] = 3 mg/kg i.p., 15 min pre-treatment
[4] = 10 mg/kg i.p., 15 min pre-treatment
[5] = 30 mg/kg i.p., 30 min pre-treatment
[6] = 250 mg/kg i.p., 30 min pre-treatment

## C=C(C)[C@@H]1CC(O)C(C)=C[C@H]1c1c(O)cc(CCC)cc1O (stereo partly drawn) [6-OH CBDV, Alpha 6-hydroxy cannabidivarin]
[1]; [3]
  % change from vehicle (CC50): 111%
  CC50 ± SEM: 54.2 ± 1.4 mA
[1]; [4]
  % change from vehicle (CC50): 147%
  CC50 ± SEM: 63.5 ± 3.4 mA
[1]; [5]
  % change from vehicle (CC50): 260%
  CC50 ± SEM: 92.5 ± 0.4 mA
[1]; mouse, 3, 10 and 30 mg/kg i.p.
  Effect on MEST (seizure threshold) across doses: dose-related increase in MEST
[2]; 3 mg/kg i.p., 60 min pre-treatment
  % change from vehicle: 20%
[2]; 10 mg/kg i.p., 60 min pre-treatment
  % change from vehicle: 20%
[2]; 30 mg/kg i.p., 60 min pre-treatment
  % change from vehicle: 100%
[2]; 30 mg/kg i.p., 60 minutes before the test
  Induction of seizure (present/absent): enabled all mice to withstand seizures
[2]; 100 mg/kg i.p., 60 min pre-treatment
  % change from vehicle: 100%
[2]; 100 mg/kg i.p., 60 minutes before the test
  Induction of seizure (present/absent): enabled all mice to withstand seizures

## CN1C(=O)CN=C(c2ccccc2)c2cc(Cl)ccc21 [Diazepam, diazepam, reference compound]
[1]; 2.5 mg/kg i.p., 30 min pre-treatment
  % change from vehicle (CC50): 124%

## CCCC(CCC)C(=O)[O-].[Na+] [Valproate, sodium valproate, reference compound]
[1]; [6]
  % change from vehicle (CC50): 997%
[2]; [6]
  % change from vehicle: 100%
[2]; 250 mg/kg i.p., 30 minutes before the test
  Induction of seizure (present/absent): all animals were scored as not having a seizure
